Data set [1] deals with T1, NPY Y1 receptors (Homo sapiens, UniProt P25929).
T1 construct: assayed in SK-N-MC (human neuroplastoma) cell membranes; endogenous in cells; host or cells: SK-N-MC (human neuroblastoma) cell membranes
T1 sequence (P25929 1-384): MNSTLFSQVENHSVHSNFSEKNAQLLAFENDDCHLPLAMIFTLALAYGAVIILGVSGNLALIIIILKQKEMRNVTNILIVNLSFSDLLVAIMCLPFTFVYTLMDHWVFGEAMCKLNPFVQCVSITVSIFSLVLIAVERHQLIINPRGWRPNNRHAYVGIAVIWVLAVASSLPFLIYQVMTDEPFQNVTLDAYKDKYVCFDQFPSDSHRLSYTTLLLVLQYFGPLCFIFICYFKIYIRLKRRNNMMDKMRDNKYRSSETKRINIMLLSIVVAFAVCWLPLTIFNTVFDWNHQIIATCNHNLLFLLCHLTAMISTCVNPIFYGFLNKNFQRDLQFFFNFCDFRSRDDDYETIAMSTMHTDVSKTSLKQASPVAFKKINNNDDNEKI
Nature of the data set: Binding affinity at NPY Y1 receptors in SK-N-MC cell membranes, iodine-125-labeled I-PYY radioligand. Conditions: SK-N-MC (human neuroblastoma) cell membranes; 125I-PYY radioligand. Here is the method:
This pharmacologic activity is assayed in SK-N-MC (human neuroblastoma) cell membranes using iodine-125-labeled I-PYY as a radioligand. […] These types of dihydropyridines have significant affinity for α1-adrenergic receptors and/or Ca^++ channels.
The following examples set forth the process for producing various squarate derivatives of the dihydropyridine. The binding affinities were determined at NPY Y1 receptors. The pharmacologic activity was assayed in SK-N-MC (human neuroblastoma) cell membranes using iodine-125-labeled 1-PYY as ratio ligand. Examples 1 and 2 are directed to the production of the intermediates. Examples 3-6 are directed to the process of producing the squarate derivatives.
The compounds of Examples 1-6 were tested for binding affinity at NPY Y1 receptors. The pharmacologic activity was assayed in SK-N-MC (human neuroplastoma) cell membranes using iodine-125 labeled I-PYY as a radioligand.

With `CCOc1c(Nc2cccc(C3C(C(=O)OC)=C(C)NC(C)=C3C(=O)OC)c2)c(=O)c1=O` [Example 1, 4-[3-[(2-Ethoxy-3,4-dioxo-1-cyclobuten-1-yl)amino]phenyl]-1,4-dihydro-2,6-dimethyl-3,5-pyridinedicarboxylic Acid, Dimethyl Ester], the melting point (usually the temperature, or range, at which the solid turns liquid) was 249 to 252 °C. Further, in data set [1], the IC50 (usually the midpoint of a concentration-inhibition curve) is above 1000 nM.
The molecule `CCOc1c(Nc2cc(C3C(C(=O)OC)=C(C)NC(C)=C3C(=O)OC)ccc2F)c(=O)c1=O` [Example 2, 4-[3-[(2-Ethoxy-3,4-dioxo-1cyclobuten-1-yl)amino]-4-fluorophenyl]-1,4-dihydro-2,6-dimethyl-3,5-pyridinedicarboxylic Acid, Dimethyl Ester] registered a melting point of 203 to 205 °C. The same molecule gave an IC50 in data set [1] above 1000 nM.
For the molecule `COC(=O)C1=C(C)NC(C)=C(C(=O)OC)C1c1cccc(Nc2c(NCCCN3CCC(c4cccc(OC)c4)CC3)c(=O)c2=O)c1` [Example 3, 1,4-Dihydro-4-[3-[[2-[[3-[4-(3-methoxyphenyl)-1-piperidinyl]propyl]amino]-3,4-dioxo-1-cyclobuten-1-yl]amino]phenyl]-2,3-dimethyl-3,5-pyridinedicarboxylic Acid, Dimethyl Ester], the IC50 in data set [1] amounted to 24.6 nM.
In turn, `COC(=O)C1=C(C)NC(C)=C(C(=O)OC)C1c1ccc(F)c(Nc2c(NCCCN3CCC(c4cccc(OC)c4)CC3)c(=O)c2=O)c1` [Example 4, 4-[4-Fluoro-3-[[2-[[3-[4-(3-methoxyphenyl)-1-piperidinyl]propyl]amino]-3,4-dioxo-1-cyclobuten-1-yl]amino]phenyl]-1,4-dihydro-2,6-dimethyl-3,5-pyridinedicarboxylic Acid, Dimethyl Ester] showed a melting point of 205 to 207 °C. Further, the half-inhibitory concentration (IC50) in data set [1] was 65.8 nM.
The like results for `COC(=O)C1=C(C)NC(C)=C(C(=O)OC)C1c1cccc(Nc2c(NCCCN3CCN(C4CCCCC4)CC3)c(=O)c2=O)c1` [Example 5, 4-[3-[[2-[[3-(4-cyclohexyl-1-piperazinyl)propyl]amino]-3,4-dioxo-1-cyclobuten-1-yl]amino]phenyl]-1,4-dihydro-2,6-dimethyl-3,5-pyridinedicarboxylic Acid, Dimethyl Ester] were, in that order, 210 to 212 °C and 140 nM.
For `COC(=O)C1=C(C)NC(C)=C(C(=O)OC)C1c1ccc(F)c(Nc2c(NCCCN3CCN(C4CCCCC4)CC3)c(=O)c2=O)c1` [Example 6, 4-[3-[[2-[[3-(4-cyclohexyl-1-piperazinyl)propyl]amino]-3,4-dioxo-1-cyclobuten-1-yl]amino]-4-fluorophenyl]-1,4-dihydro-2,6-dimethyl-3,5-pyridinedicarboxylic Acid, Dimethyl Ester] the same measures were 229 to 230 °C and 950 nM.

The record behind these values is US6432960B1, “Squarate derivatives of dihydropyridine NPY antagonists” (Bristol-Myers Squibb Company, priority 2000, dated 2002).
